# Test results from ChEMBL document CHEMBL5154921, “Discovery and Characterization of the First Nonpeptide Antagonists for the Relaxin-3/RXFP3 System” (J Med Chem, 2022).
# How the values were obtained:
# Relaxin-3 receptor 1 [1] = biological target: T1, Relaxin-3 receptor 1 (Homo sapiens, UniProt Q9NSD7); assay: Antagonist activity at human RXFP3 expressed in CHO-K1 cells assessed as inhibition of relaxin-3 stimulated ERK1/2 phosphorylation preincubated for 15 mins followed by relaxin-3 addition for 5 mins; type: functional, cell-based
# T1 sequence (Q9NSD7 whole entry): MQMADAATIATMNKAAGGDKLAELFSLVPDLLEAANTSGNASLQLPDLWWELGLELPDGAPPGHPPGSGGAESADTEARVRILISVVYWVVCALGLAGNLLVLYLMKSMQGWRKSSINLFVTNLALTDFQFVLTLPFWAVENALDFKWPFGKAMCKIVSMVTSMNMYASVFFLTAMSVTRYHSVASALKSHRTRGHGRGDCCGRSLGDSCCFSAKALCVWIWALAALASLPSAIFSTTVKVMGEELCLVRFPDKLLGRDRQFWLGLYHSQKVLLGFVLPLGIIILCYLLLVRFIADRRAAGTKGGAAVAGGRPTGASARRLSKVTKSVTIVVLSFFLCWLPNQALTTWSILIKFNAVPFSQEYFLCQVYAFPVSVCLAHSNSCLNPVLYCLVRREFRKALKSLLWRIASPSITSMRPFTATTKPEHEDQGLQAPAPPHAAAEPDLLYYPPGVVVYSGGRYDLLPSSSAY
# Relaxin-3 receptor 1 [2] = biological target: T1, Relaxin-3 receptor 1
# Relaxin-3 receptor 1 [3] = biological target: T1, Relaxin-3 receptor 1; assay: Antagonist activity at human RXFP3 expressed in CHO-K1 cells assessed as forskolin-induced cAMP accumulation measured after 30 mins in presence of relaxin-3 by TR-FRET assay; type: functional, cell-based
substance,measurement,setting,value
H-RAAPYGVRLSGREFIRAVIFTSR-NH2,IC50,Relaxin-3 receptor 1 [1],7820 nM
same,Ki,Relaxin-3 receptor 1 [2],11.1 nM
same,IC50,Relaxin-3 receptor 1 [3],504 nM
